{"source": "paper PMC11022890", "about": "(Drug Metabolism and Disposition, 2021)", "key": {"UGT1A9 [1]": {"target": "T1, UGT1A9 (Homo sapiens, UniProt O60656)", "T1 sequence (O60656 26-530)": "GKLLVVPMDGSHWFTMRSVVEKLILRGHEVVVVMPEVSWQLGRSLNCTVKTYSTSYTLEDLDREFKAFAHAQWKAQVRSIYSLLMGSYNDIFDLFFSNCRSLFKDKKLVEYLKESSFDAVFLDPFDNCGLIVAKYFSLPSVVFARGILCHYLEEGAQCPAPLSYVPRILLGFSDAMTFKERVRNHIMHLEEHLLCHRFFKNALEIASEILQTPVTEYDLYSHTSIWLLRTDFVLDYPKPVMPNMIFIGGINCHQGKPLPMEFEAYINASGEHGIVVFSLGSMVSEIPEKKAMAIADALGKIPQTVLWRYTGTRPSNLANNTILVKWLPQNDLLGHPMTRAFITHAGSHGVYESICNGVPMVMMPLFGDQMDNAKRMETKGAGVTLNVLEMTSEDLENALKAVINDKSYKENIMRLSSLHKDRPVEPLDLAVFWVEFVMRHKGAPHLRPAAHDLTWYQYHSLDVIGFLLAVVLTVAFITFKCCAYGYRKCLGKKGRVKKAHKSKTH", "assay": "Inhibition of furosemide glucuronidation in rUGT1A9 microsomes", "assay_type": "in vitro ADME"}, "UGT1A1": {"target": "T2, UGT1A1 (Homo sapiens, UniProt P22309)", "T2 sequence (P22309 26-533)": "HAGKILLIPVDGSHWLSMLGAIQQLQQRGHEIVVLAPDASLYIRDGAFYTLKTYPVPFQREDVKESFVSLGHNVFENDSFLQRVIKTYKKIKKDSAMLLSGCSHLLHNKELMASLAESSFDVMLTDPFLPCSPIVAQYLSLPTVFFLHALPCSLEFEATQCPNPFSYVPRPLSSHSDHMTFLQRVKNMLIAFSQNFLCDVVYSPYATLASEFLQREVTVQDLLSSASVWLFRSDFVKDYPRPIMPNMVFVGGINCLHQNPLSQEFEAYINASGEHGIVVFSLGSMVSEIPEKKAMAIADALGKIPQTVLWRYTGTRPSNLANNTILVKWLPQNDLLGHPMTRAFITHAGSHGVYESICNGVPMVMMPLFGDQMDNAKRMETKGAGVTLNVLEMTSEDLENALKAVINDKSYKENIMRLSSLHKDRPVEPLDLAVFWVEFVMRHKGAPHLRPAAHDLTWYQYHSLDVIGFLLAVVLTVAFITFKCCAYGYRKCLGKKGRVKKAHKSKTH", "assay": "Screening: inhibition of β-estradiol glucuronidation in rUGT1A1 microsomes", "assay_type": "in vitro ADME", "conditions": "10 or 100 µM"}, "UGT2B4": {"target": "T3, UGT2B4 (Homo sapiens, UniProt P06133)", "T3 sequence (P06133 24-528)": "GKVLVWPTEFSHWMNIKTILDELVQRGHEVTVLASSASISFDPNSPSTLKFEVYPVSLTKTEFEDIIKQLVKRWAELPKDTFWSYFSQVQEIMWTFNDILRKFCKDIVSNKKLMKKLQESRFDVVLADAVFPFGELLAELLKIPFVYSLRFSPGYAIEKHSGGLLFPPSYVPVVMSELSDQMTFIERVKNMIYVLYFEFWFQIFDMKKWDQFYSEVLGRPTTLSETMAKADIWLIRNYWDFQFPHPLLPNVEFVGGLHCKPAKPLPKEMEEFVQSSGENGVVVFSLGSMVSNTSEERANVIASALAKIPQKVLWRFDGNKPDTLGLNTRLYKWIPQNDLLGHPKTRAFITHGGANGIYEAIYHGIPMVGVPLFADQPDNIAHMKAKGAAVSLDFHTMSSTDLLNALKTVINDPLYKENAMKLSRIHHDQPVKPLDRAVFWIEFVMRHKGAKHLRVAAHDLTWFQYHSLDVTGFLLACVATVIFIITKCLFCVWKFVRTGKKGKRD", "assay": "Inhibition of codeine glucuronidation in rUGT2B4 microsomes", "assay_type": "in vitro ADME"}, "UGT1A9 [2]": {"target": "T1, UGT1A9", "assay": "in vitro", "conditions": "both, HLM"}, "UGT2B17": {"target": "T4, UGT2B17 (Homo sapiens, UniProt O75795)", "T4 sequence (O75795 24-530)": "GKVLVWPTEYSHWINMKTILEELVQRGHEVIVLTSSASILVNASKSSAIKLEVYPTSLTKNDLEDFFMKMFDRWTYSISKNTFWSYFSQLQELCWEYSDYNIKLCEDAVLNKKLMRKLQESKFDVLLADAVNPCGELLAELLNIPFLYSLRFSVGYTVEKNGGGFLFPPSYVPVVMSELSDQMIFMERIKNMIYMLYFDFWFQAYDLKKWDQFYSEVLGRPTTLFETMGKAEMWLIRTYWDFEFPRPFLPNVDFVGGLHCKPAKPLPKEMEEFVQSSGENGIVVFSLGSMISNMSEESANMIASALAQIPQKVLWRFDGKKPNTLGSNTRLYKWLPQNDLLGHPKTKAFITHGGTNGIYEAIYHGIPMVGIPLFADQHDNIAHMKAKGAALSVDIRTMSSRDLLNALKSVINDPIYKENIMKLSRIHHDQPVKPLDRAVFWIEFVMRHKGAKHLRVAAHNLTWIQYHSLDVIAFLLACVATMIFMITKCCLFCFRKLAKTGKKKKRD", "assay_type": "in vitro ADME", "conditions": "100 µM; rUGT2B17 microsomes; dihydroexemestane; screening"}, "[3]": {"target": "T5, UGT1A9 in human kidney microsomes (Homo sapiens, UniProt O60656)", "T5 sequence (O60656 26-530)": "T1 sequence (O60656 26-530)", "assay": "Inhibition of propofol glucuronidation", "conditions": "HKM"}, "UGT2B7": {"target": "T6, UGT2B7 (Homo sapiens, UniProt P16662)", "T6 sequence (P16662 24-529)": "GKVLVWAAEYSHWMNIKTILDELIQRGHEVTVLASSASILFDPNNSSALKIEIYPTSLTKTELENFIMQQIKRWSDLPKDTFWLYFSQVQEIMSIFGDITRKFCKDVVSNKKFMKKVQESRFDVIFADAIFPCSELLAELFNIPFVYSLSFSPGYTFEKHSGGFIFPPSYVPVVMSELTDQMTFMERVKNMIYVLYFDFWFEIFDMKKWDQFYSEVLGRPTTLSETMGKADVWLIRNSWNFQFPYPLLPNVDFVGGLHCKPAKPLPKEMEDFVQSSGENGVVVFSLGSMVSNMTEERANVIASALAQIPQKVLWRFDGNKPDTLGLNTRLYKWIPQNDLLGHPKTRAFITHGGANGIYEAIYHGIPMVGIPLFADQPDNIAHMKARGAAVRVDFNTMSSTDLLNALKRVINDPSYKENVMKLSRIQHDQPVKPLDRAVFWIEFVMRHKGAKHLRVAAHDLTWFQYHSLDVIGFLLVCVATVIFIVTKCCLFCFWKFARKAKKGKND", "assay_type": "in vitro ADME", "conditions": "rUGT2B7 microsomes"}, "[4]": {"conditions": "IC50, probe substrate furosemide"}, "[5]": {"conditions": "IC50,u (binding-corrected IC50), probe substrate furosemide"}, "[6]": {"conditions": "IC50,u (binding-corrected IC50), probe substrate propofol"}}}
{"smiles": "CCCCCc1cc(O)c2c(c1)OC(C)(C)c1ccc(C)cc1-2", "note": "[CBN, cannabinol]", "values": [{"measurement": "IC50", "setting": "UGT1A9 [1]; [4]", "result": "9200 ± 2100", "unit": "nM"}, {"measurement": "IC50", "setting": "UGT1A9 [1]; [5]", "result": "780 ± 180", "unit": "nM"}, {"measurement": "inhibition in screening (in words)", "setting": "UGT1A1", "result": "no significant inhibition"}, {"measurement": "inhibition in screening (in words)", "setting": "UGT2B4; 10 or 100 µM", "result": "significant inhibition was not observed"}, {"measurement": "IC50", "setting": "UGT1A9 [2]; [4]", "result": "30000 ± 4500", "unit": "nM"}, {"measurement": "IC50", "setting": "UGT1A9 [2]; [5]", "result": "2800 ± 960", "unit": "nM"}, {"measurement": "inhibition vs control without cannabinoid", "setting": "UGT2B17", "result": 34, "unit": "%"}, {"measurement": "IC50", "setting": "[3]; IC50, probe substrate propofol", "result": "7500 ± 1700", "unit": "nM"}, {"measurement": "IC50", "setting": "[3]; [6]", "result": "900 ± 200", "unit": "nM"}, {"measurement": "inhibition in screening (in words)", "setting": "UGT2B7; 10 or 100 µM", "result": "significant inhibition"}]}
{"smiles": "C=C(C)[C@@H]1CCC(C)=C[C@H]1c1c(O)cc(CCCCC)cc1O", "note": "[CBD, cannabidiol]", "values": [{"measurement": "IC50", "setting": "UGT1A9 [1]; [4]", "result": "2400 ± 660", "unit": "nM"}, {"measurement": "IC50", "setting": "UGT1A9 [1]; [5]", "result": "90 ± 25", "unit": "nM"}, {"measurement": "inhibition in screening (in words)", "setting": "UGT1A1", "result": "no significant inhibition"}, {"measurement": "inhibition vs control without cannabinoid", "setting": "UGT2B4; 10 µM, codeine, screening", "result": 66, "unit": "%"}, {"measurement": "IC50", "setting": "UGT2B4; IC50, probe substrate codeine", "result": "5800 ± 1200", "unit": "nM"}, {"measurement": "IC50", "setting": "UGT2B4; IC50,u (binding-corrected IC50), probe substrate codeine", "result": "220 ± 45", "unit": "nM"}, {"measurement": "IC50", "setting": "UGT1A9 [2]; [4]", "result": "29000 ± 4000", "unit": "nM"}, {"measurement": "IC50", "setting": "UGT1A9 [2]; [5]", "result": "1500 ± 200", "unit": "nM"}, {"measurement": "inhibition vs control without cannabinoid", "setting": "UGT2B17", "result": 43, "unit": "%"}, {"measurement": "IC50", "setting": "[3]; IC50, probe substrate propofol", "result": "5500 ± 560", "unit": "nM"}, {"measurement": "IC50", "setting": "[3]; [6]", "result": "340 ± 35", "unit": "nM"}, {"measurement": "inhibition vs control without cannabinoid", "setting": "UGT2B7; 10 µM, zidovudine, screening", "result": 58, "unit": "%"}]}
